Calls of active or inactive are those of the source. The calls are words filed in the database; no cut-off is given here.
How the values were obtained:
[1] = test system: MDA-MB-435; assay: Growth inhibition of human MDA-MB-435 cells measured after 48 hrs by sulforhodamine B assay; format: functional; settings: for CC50: read-out: LC50 (the source's name)
[2] = test system: MDA-MB-435; assay: Growth inhibition of human MDA-MB-435 cells at 10 uM measured after 48 hrs by sulforhodamine B assay; format: functional, cell-based
[3] = test system: NCI-H522; assay: Growth inhibition of human NCI-H522 cells measured after 48 hrs by sulforhodamine B assay; format: functional; settings: for CC50: read-out: LC50 (the source's name)
[4] = test system: COLO 205; assay: Growth inhibition of human COLO 205 cells measured after 48 hrs by sulforhodamine B assay; format: functional; settings: for CC50: read-out: LC50 (the source's name)
[5] = test system: SK-MEL-5; assay: Growth inhibition of human SK-MEL-5 cells at 10 uM measured after 48 hrs by sulforhodamine B assay; format: functional, cell-based
[6] = test system: NCI-H522; assay: Growth inhibition of human NCI-H522 cells at 10 uM measured after 48 hrs by sulforhodamine B assay; format: functional, cell-based
[7] = test system: SK-MEL-5; assay: Growth inhibition of human SK-MEL-5 cells measured after 48 hrs by sulforhodamine B assay; format: functional; settings: for CC50: read-out: LC50 (the source's name)
[8] = test system: COLO 205; assay: Growth inhibition of human COLO 205 cells at 10 uM measured after 48 hrs by sulforhodamine B assay; format: functional, cell-based
[9] = test system: MDA-MB-231; assay: Cytotoxicity against human MDA-MB-231 cells assessed as reduction in cell viability measured after 48 hrs by MTT assay; format: functional, cell-based; settings: MDA-MB-231, 48 h
[10] = test system: MDA-MB-231; assay: Induction of apoptosis in human MDA-MB-231 cells assessed as early apoptotic cells at 10 uM measured after 24 hrs by Annexin V/7-AAD double staining based muse cell analyzer method (reference value: 1.64%); format: functional
[11] = test system: MDA-MB-231; assay: Induction of apoptosis in human MDA-MB-231 cells assessed as viable cells at 10 uM measured after 24 hrs by Annexin V/7-AAD double staining based muse cell analyzer method (reference value: 96.21%); format: functional; settings: read-out: Activity
[12] = test system: MDA-MB-231; assay: Cell cycle arrest in human MDA-MB-231 cells assessed as accumulation of cells at G0/G1 phase at 10 uM measured after 24 hrs by Muse cell analyzer based assay (reference value: 59.7%); format: functional
[13] = test system: MDA-MB-231; assay: Induction of apoptosis in human MDA-MB-231 cells assessed as necrotic cells at 10 uM measured after 24 hrs by Annexin V/7-AAD double staining based muse cell analyzer method (reference value: 0.72%); format: functional
[14] = test system: MDA-MB-231; assay: Cell cycle arrest in human MDA-MB-231 cells assessed as accumulation of cells at S phase at 10 uM measured after 24 hrs by Muse cell analyzer based assay (reference value: 12.9%); format: functional
[15] = test system: MDA-MB-231; assay: Cell cycle arrest in human MDA-MB-231 cells assessed as accumulation of cells at G2/M phase at 10 uM measured after 24 hrs by Muse cell analyzer based assay (reference value: 27.3%); format: functional
[16] = test system: MDA-MB-231; assay: Induction of apoptosis in human MDA-MB-231 cells assessed as late apoptotic cells at 10 uM measured after 24 hrs by Annexin V/7-AAD double staining based muse cell analyzer method (reference value: 1.44%); format: functional
[17] = organism: Sus scrofa; assay: Inhibition of porcine brain tubulin polymerization assessed as microtubule destabilization by measuring relative fluorescence unit at 10 uM measured at 60 secs interval for 60 mins in presence of GTP by fluorescence assay
[18] = test system: MDA-MB-231; assay: Induction of morphological changes in human MDA-MB-231 cells assessed as loss of cell polarity at 10 uM measured after 24 hrs; format: functional, cell-based
[19] = Cytotoxicity against human HaCaT cells assessed as reduction in cell viability measured after 48 hrs by MTT assay; format: toxicity, cell-based
[20] = test system: OVCAR-8; assay: Growth inhibition of human OVCAR-8 cells at 10 uM measured after 48 hrs by sulforhodamine B assay; format: functional, cell-based
[21] = test system: OVCAR-8; assay: Growth inhibition of human OVCAR-8 cells measured after 48 hrs by sulforhodamine B assay; format: functional
[22] = test system: K562; assay: Growth inhibition of human K562 cells measured after 48 hrs by sulforhodamine B assay; format: functional
[23] = test system: UACC-62; assay: Growth inhibition of human UACC-62 cells at 10 uM measured after 48 hrs by sulforhodamine B assay; format: functional, cell-based
[24] = test system: MCF7; assay: Growth inhibition of human MCF7 cells at 10 uM measured after 48 hrs by sulforhodamine B assay; format: functional, cell-based
[25] = test system: UACC-62; assay: Growth inhibition of human UACC-62 cells measured after 48 hrs by sulforhodamine B assay; format: functional
[26] = test system: MCF7; assay: Growth inhibition of human MCF7 cells measured after 48 hrs by sulforhodamine B assay; format: functional
[27] = test system: K562; assay: Growth inhibition of human K562 cells at 10 uM measured after 48 hrs by sulforhodamine B assay; format: functional, cell-based
[28] = organism: Sus scrofa; assay: Inhibition of porcine brain tubulin polymerization assessed as microtubule destabilization at 10 uM measured at 60 secs interval for 60 mins in presence of GTP by fluorescence assay
[29] = read-out: LC50 (the source's name)

O=C(N/N=C/c1ccc(-c2ccc(O)cc2)s1)c1[nH]c2ccc(Br)cc2c1-c1ccccc1
growth inhibition (GI) [1]: Active | growth inhibition (GI) [2]: Active | growth inhibition (GI) [3]: Active | growth inhibition (GI) [4]: Active | growth inhibition (GI) [5]: Active | growth inhibition (GI) [6]: Active | growth inhibition (GI) [7]: Active | growth inhibition (GI) [8]: Active

COc1ccsc1/C=N/NC(=O)c1[nH]c2ccc(Br)cc2c1-c1ccccc1
GI50 [1]: 240 nM | CC50 [1]: > 100000 nM | growth inhibition (GI) [2]: Active | GI50 [3]: 213 nM | CC50 [3]: 8560 nM | IC50 [9]: 4130 nM | GI50 [4]: 435 nM | CC50 [4]: 5920 nM | Activity [10]: 3.55% | growth inhibition (GI) [5]: Active | viability at 10 µM [11]: 85.8% | Activity [12]: 19.6% | Activity [13]: 4.98% | Activity [14]: 10.2% | growth inhibition (GI) [6]: Active | Activity [15]: 70% | Activity [16]: 5.7% | RFU [17]: 20 a.u. | GI50 [7]: 321 nM | CC50 [7]: > 100000 nM | Activity [18]: Active | IC50 at 48 h [19]: 540 nM | growth inhibition (GI) [8]: Active

O=C(N/N=C/c1ccc(B(O)O)s1)c1[nH]c2ccc(Br)cc2c1-c1ccccc1
GI50 [1]: > 100 nM | growth inhibition (GI) [2]: Active | GI50 [3]: > 100 nM | GI50 [4]: > 100 nM | CC50 [4]: 4980 nM | growth inhibition (GI) [5]: Active | growth inhibition (GI) [6]: Active | GI50 [7]: > 100 nM | growth inhibition (GI) [8]: Active

O=C(N/N=C/c1ccco1)c1[nH]c2ccc(Br)cc2c1-c1ccccc1
growth inhibition (GI) [20]: Active | GI50 [1]: 34 nM | CC50 [1]: > 100000 nM | growth inhibition (GI) [2]: Active | GI50 [3]: 23.9 nM | CC50 [3]: > 100000 nM | GI50 [21]: 121 nM | CC50 [21, 29]: > 100000 nM | GI50 [4]: 113 nM | CC50 [4]: > 100000 nM | growth inhibition (GI) [5]: Active | GI50 [22]: 40.7 nM | CC50 [22, 29]: > 100000 nM | growth inhibition (GI) [23]: Active | growth inhibition (GI) [6]: Active | RFU [17]: 50 a.u. | GI50 [7]: 88.7 nM | CC50 [7]: > 100000 nM | growth inhibition (GI) [24]: Active | GI50 [25]: 39.4 nM | CC50 [25, 29]: > 100000 nM | GI50 [26]: 41.4 nM | LC50 [26]: > 100000 nM | growth inhibition (GI) [27]: Active | growth inhibition (GI) [8]: Active

O=C(N/N=C/c1ccsc1)c1[nH]c2ccc(Br)cc2c1-c1ccccc1
GI50 [1]: 78.9 nM | CC50 [1]: > 10000 nM | growth inhibition (GI) [2]: Active | GI50 [3]: > 100 nM | CC50 [3]: > 10000 nM | GI50 [4]: > 100 nM | CC50 [4]: > 10000 nM | growth inhibition (GI) [5]: Active | growth inhibition (GI) [6]: Active | GI50 [7]: > 100 nM | CC50 [7]: > 10000 nM | growth inhibition (GI) [8]: Active

O=C(N/N=C/c1cccs1)c1[nH]c2ccc(Br)cc2c1-c1ccccc1
growth inhibition (GI) [1]: Active | CC50 [1]: > 10000 nM | growth inhibition (GI) [2]: Active | growth inhibition (GI) [3]: Active | CC50 [3]: > 10000 nM | growth inhibition (GI) [4]: Active | CC50 [4]: > 10000 nM | growth inhibition (GI) [5]: Active | growth inhibition (GI) [6]: Active | growth inhibition (GI) [7]: Active | CC50 [7]: > 10000 nM | growth inhibition (GI) [8]: Active

COc1csc(/C=N/NC(=O)c2[nH]c3ccc(Br)cc3c2-c2ccccc2)c1
inhibition [28]: inactive | GI50 [1]: 19.1 nM | CC50 [1]: 259 nM | growth inhibition (GI) [2]: Active | GI50 [3]: < 10 nM | CC50 [3]: > 100000 nM | IC50 [9]: 160 nM | GI50 [4]: 19.1 nM | CC50 [4]: 70.8 nM | Activity [10]: 6.44% | growth inhibition (GI) [5]: Active | viability at 10 µM [11]: 66.7% | Activity [12]: 15.6% | Activity [13]: 6.61% | Activity [14]: 10% | growth inhibition (GI) [6]: Active | Activity [15]: 74.5% | Activity [16]: 20.25% | GI50 [7]: 18.6 nM | CC50 [7]: 74.9 nM | Activity [18]: Active | IC50 at 48 h [19]: 30 nM | growth inhibition (GI) [8]: Active

— ChEMBL document CHEMBL5576112, “Synthesis, in silico, in vitro evaluation of furanyl- and thiophenyl-3-phenyl-1H-indole-2-carbohydrazide derivatives as tubulin inhibitors and anticancer agents” (RSC Med Chem, 2024)
